Some test systems named below: LOX IMVI; SF-295; SK-MEL-2; Malme-3M; SNB-75; 786-0; OVCAR-3; A549; UACC-62; COLO 205; RPMI-8226; CAKI-1; A498; KM12; HCT-15; HOP-92; SR.
What all share (assay): NCI-60 cell line screen, 48 h

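Dose response: 5 concentrations. Exposure: 48 h. Format: 96-well plates. Endpoint: linear interpolation; highest concentration if not reached. GI50 = concentration required for 50% inhibition of growth.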 Calls of active or inactive are those of the source. Rule as the data show it: active = GI50 up to about 1.1 µM and inactive = higher.

Take `CCOc1ccc2c(c1)[n+]([O-])c(-c1ccccc1)c(N)[n+]2[O-]`: the GI50 in the test with LOX IMVI is > 100 µM (inactive); with SF-295, > 100 µM (inactive); in the test on SK-MEL-2, > 100 µM (inactive); with Malme-3M it was 66.7 µM (inactive); in the test with SNB-75 it was > 100 µM (inactive); in the test with 786-0, > 100 µM (inactive). For the same molecule, the GI50 with OVCAR-3 was 82.2 µM (inactive); in the test on A549 it was > 100 µM (inactive); with UACC-62 it was 30.5 µM (inactive); in the test on COLO 205, 30.5 µM (inactive); with RPMI-8226 it was > 100 µM (inactive); with CAKI-1, 35.6 µM (inactive). For the same molecule, the GI50 was 82.6 µM (inactive) in the test with A498, 97.3 µM (inactive) in the test on KM12 and 55.2 µM with HCT-15.

`CCOP(=O)(OCC)C1CC(C)OC1=O` (stereo not drawn): the GI50 with LOX IMVI, in the test with SF-295, with SK-MEL-2, in the test on Malme-3M, with SNB-75 and with 786-0 was > 100 µM (inactive) in each case. Also, the GI50 in the test with OVCAR-3, in the test with A549, with UACC-62, in the test with COLO 205, with RPMI-8226 and with CAKI-1 was > 100 µM (inactive) in each case. Also, the GI50 is > 100 µM (inactive) in the test with A498, > 100 µM (inactive) in the test with KM12 and more than 100 µM with HCT-15.

As for `COc1ccc(S(=O)(=O)NC(C)C(=O)O)cc1` (stereo not drawn), the GI50 with LOX IMVI is > 100 µM (inactive); in the test with SF-295, > 100 µM (inactive); with SK-MEL-2, > 100 µM (inactive); in the test with Malme-3M, > 100 µM (inactive); with SNB-75, 70.5 µM (inactive); with 786-0, > 100 µM (inactive). The GI50 with OVCAR-3, in the test on A549, in the test with UACC-62, in the test on HOP-92, with COLO 205 and with RPMI-8226 was > 100 µM (inactive) throughout. For the same molecule, the GI50 in the test with CAKI-1 was > 100 µM (inactive); in the test with A498, > 100 µM (inactive); in the test on KM12 it was > 100 µM (inactive); with HCT-15, more than 100 µM.

Consider `O=C(N/N=C/c1cc(-c2ccccc2Cl)c(-c2ccccc2Cl)o1)c1ccncc1`, for which the GI50 in the test on LOX IMVI is > 100 µM (inactive); in the test with SF-295 it was > 100 µM (inactive); with SK-MEL-2, > 100 µM (inactive); in the test on Malme-3M, > 100 µM (inactive); with SNB-75, 81.7 µM (inactive); in the test on 786-0 it was > 100 µM (inactive). The GI50 is 43.9 µM (inactive) with OVCAR-3; > 100 µM (inactive) in the test on A549; > 100 µM (inactive) with UACC-62; > 100 µM (inactive) in the test on HOP-92; > 100 µM (inactive) in the test on COLO 205; 23.6 µM (inactive) in the test on RPMI-8226. Further, the GI50 in the test with CAKI-1 and with A498 was > 100 µM (inactive) throughout.

On to `Clc1ccc(C2=NN(c3ccccc3)C3c4cc(Br)ccc4OCC23)cc1` (stereo not drawn), for which the GI50 is 64.3 µM (inactive) with LOX IMVI; 86.3 µM (inactive) in the test with SF-295; > 100 µM (inactive) in the test on SK-MEL-2; 96.4 µM (inactive) in the test on Malme-3M; > 100 µM (inactive) in the test with SNB-75; > 100 µM (inactive) with 786-0. Further, the GI50 in the test on OVCAR-3 is > 100 µM (inactive); in the test with A549, > 100 µM (inactive); in the test on HOP-92 it was > 100 µM (inactive); in the test on COLO 205, > 100 µM (inactive); in the test on RPMI-8226, 11.6 µM (inactive); with A498, > 100 µM (inactive). The GI50 in the test with KM12 was > 100 µM (inactive).

Turning to `CCC1(C)NN=c2s/c(=C/c3ccc(OC)cc3)c(=O)n2N1` (stereo not drawn), the GI50 in the test with LOX IMVI is > 100 µM (inactive); in the test on SF-295 it was > 100 µM (inactive); in the test with SK-MEL-2 it was > 100 µM (inactive); in the test with Malme-3M it was > 100 µM (inactive); in the test with SNB-75, 38.2 µM (inactive); in the test on 786-0, > 100 µM (inactive). In addition, the GI50 in the test with OVCAR-3 was 80.4 µM (inactive); with A549, > 100 µM (inactive); with UACC-62, > 100 µM (inactive); with HOP-92, 17.6 µM (inactive); with SR, > 100 µM (inactive); in the test with COLO 205 it was > 100 µM (inactive). Further, the GI50 in the test with CAKI-1 and with KM12 was > 100 µM (inactive) in each case.

For the molecule `CC(C)(C)c1cc2ccc(C(N)=O)cc2c(=O)[nH]1`, the GI50 with LOX IMVI is 62.7 µM (inactive); with SF-295, > 100 µM (inactive); in the test with SK-MEL-2, > 100 µM (inactive); with Malme-3M, > 100 µM (inactive); in the test with SNB-75, 27.2 µM (inactive); in the test with 786-0, > 100 µM (inactive). Besides, the GI50 in the test on OVCAR-3 was > 100 µM (inactive); with A549, > 100 µM (inactive); in the test on UACC-62, > 100 µM (inactive); in the test with HOP-92, 95.1 µM (inactive); in the test with SR it was > 100 µM (inactive); in the test on COLO 205 it was > 100 µM (inactive). Besides, the GI50 in the test on CAKI-1 is 80.2 µM (inactive); in the test on A498, > 100 µM (inactive); in the test on KM12, 59.3 µM (inactive); in the test with HCT-15, more than 100 µM.

Consider `CC(=O)Nc1ccc(C2CC(c3ccc([N+](=O)[O-])cc3)=Nc3ccccc3[S+]2[O-])cc1` (stereo not drawn), for which the GI50 was 14.7 µM (inactive) in the test on LOX IMVI; 28.8 µM (inactive) with SF-295; 27.4 µM (inactive) with SK-MEL-2; > 10 µM (inactive) in the test with Malme-3M; 16.9 µM (inactive) in the test on SNB-75; 9.64 µM (inactive) with 786-0. The GI50 in the test with OVCAR-3 is 25.3 µM (inactive); with A549, 38.4 µM (inactive); in the test with UACC-62, 11.6 µM (inactive); with COLO 205, 21.8 µM (inactive); in the test on RPMI-8226 it was 4.36 µM (inactive); in the test on CAKI-1, > 10 µM (inactive). The GI50 with KM12 is 14.1 µM (inactive); in the test on HCT-15 it was 20.6 µM.

Consider `COc1ccc(CC2=NCCc3cc(OC)c(OC)cc32)cc1Br`, for which the GI50 with LOX IMVI was 5.09 µM (inactive); in the test with SF-295 it was 3.48 µM (inactive); with SK-MEL-2, 33.4 µM (inactive); with Malme-3M, 22.8 µM (inactive); in the test with 786-0, 5.78 µM (inactive); in the test with A549, 21.6 µM (inactive). Further, the GI50 with UACC-62 was 6.67 µM (inactive); in the test on HOP-92, 0.644 µM (active); in the test on SR it was 11.9 µM (inactive); with COLO 205, 14.6 µM (inactive); in the test with CAKI-1, 12.1 µM (inactive); in the test with A498 it was 13.1 µM (inactive). For the same molecule, the GI50 in the test with KM12 was 16.1 µM (inactive).

With `O=c1[nH]c2ccc([N+](=O)[O-])cc2nc1/C(=N/Nc1ccccc1)C(O)c1ccco1` (stereo not drawn), the GI50 is > 100 µM (inactive) in the test with LOX IMVI; 83.4 µM (inactive) in the test with SF-295; > 100 µM (inactive) in the test on SK-MEL-2; 63.8 µM (inactive) in the test on Malme-3M; 36.3 µM (inactive) in the test with SNB-75; > 100 µM (inactive) in the test with 786-0. Also, the GI50 with OVCAR-3 is > 100 µM (inactive); in the test with A549 it was 69.3 µM (inactive); with UACC-62, 32.2 µM (inactive); in the test on HOP-92, > 100 µM (inactive); in the test with SR, 66.2 µM (inactive); with COLO 205 it was 38.8 µM (inactive). The results for the GI50 in the test on RPMI-8226, with KM12 and in the test with HCT-15 were 34.7 µM (inactive), 33.6 µM (inactive) and 18.2 µM, respectively.

With `Nc1ccc(C(=O)NN2C(=O)C(Cl)C2c2cccc([N+](=O)[O-])c2)cc1` (stereo not drawn), the GI50 in the test with LOX IMVI is 10.2 µM (inactive); with SF-295 it was 20.5 µM (inactive); with SK-MEL-2, 16.8 µM (inactive); with Malme-3M, 20.4 µM (inactive); in the test with SNB-75, 18.7 µM (inactive); in the test with 786-0 it was 18.7 µM (inactive). In addition, the GI50 in the test with OVCAR-3 is 20.5 µM (inactive); in the test with A549 it was 46.3 µM (inactive); in the test on UACC-62 it was 21.1 µM (inactive); in the test on HOP-92 it was 21.4 µM (inactive); in the test on COLO 205, 19 µM (inactive); in the test with RPMI-8226, 23.2 µM (inactive). Also, the GI50 in the test on CAKI-1 was 19.5 µM (inactive); in the test with A498 it was 28.5 µM (inactive); in the test with KM12, 16.2 µM (inactive); in the test on HCT-15, 18.6 µM.

For `O=S1(=O)NN=C(NCc2ccc(Cl)c(Cl)c2)c2ccccc21`, the GI50 is 40.2 µM (inactive) in the test with LOX IMVI; > 100 µM (inactive) in the test on SF-295; > 100 µM (inactive) with SK-MEL-2; > 100 µM (inactive) in the test on Malme-3M; > 100 µM (inactive) in the test with 786-0; > 100 µM (inactive) with OVCAR-3. The GI50 with A549 is > 100 µM (inactive); in the test on UACC-62, 6.56 µM (inactive); in the test on HOP-92, 50.1 µM (inactive); in the test on SR, 15.6 µM (inactive); in the test on COLO 205, > 100 µM (inactive); in the test with RPMI-8226, 11.5 µM (inactive). Besides, the GI50 in the test on CAKI-1 was > 100 µM (inactive); with A498 it was > 100 µM (inactive); in the test on KM12 it was > 100 µM (inactive); with HCT-15, 36 µM.

With `COC(=O)/C(Cl)=C1/CC1COCc1ccccc1` (stereo not drawn), the GI50 in the test on LOX IMVI is > 10 µM (inactive); with SF-295 it was 53.5 µM (inactive); in the test on SK-MEL-2, 31.9 µM (inactive); in the test with Malme-3M it was 26.6 µM (inactive); with SNB-75, 47.8 µM (inactive); in the test with 786-0, 19.7 µM (inactive). Moreover, the GI50 was 23.2 µM (inactive) in the test on OVCAR-3; 54.7 µM (inactive) in the test on A549; 23.9 µM (inactive) in the test with UACC-62; 22.9 µM (inactive) with HOP-92; 21.2 µM (inactive) with COLO 205; 19.5 µM (inactive) in the test on RPMI-8226. Besides, the GI50 in the test on CAKI-1 is 22.6 µM (inactive); with A498, 22.6 µM (inactive); with KM12 it was 28.7 µM (inactive); in the test with HCT-15 it was 17.1 µM.
